Each compound was assayed on HEK293T cells carrying the ATF4 luciferase reporter (assay: ATF4-Luc assay (in vitro model of VWMD)). Conditions: Homo sapiens, HEK-293T, 1 μg/mL tunicamycin, 7 hours, One Glo luminescence.
Format: cell-based, human
Method in brief: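 Tunicamycin (1 μg/mL) stress with co-added compound for 7 hours in HEK293T cells stably carrying an ATF4 5′-UTR–luciferase reporter. EC50 values come from the luminescent signal (One Glo).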

First: O=C(CO[C@H]1C[C@@H](OC(F)(F)F)C1)NC12CCC(NC(=O)[C@H]3C[C@@H](O)c4cc(Cl)ccc4O3)(CC1)[C@@H](O)C2 [Compound 220, (2R,4R)-6-chloro-4-hydroxy-N-[(2S)-2-hydroxy-4-(2-{[cis-3-(trifluoromethoxy)cyclobutyl]oxy}acetamido)bicyclo[2.2.2]octan-1-yl]-3,4-dihydro-2H-1-benzopyran-2-carboxamide]
Second: O=C(CO[C@H]1C[C@@H](OC(F)(F)F)C1)NC12CCC(NC(=O)[C@H]3CC(=O)c4cc(Cl)ccc4O3)(CC1)[C@@H](O)C2 [Compound 223, (2R)-6-chloro-N-[(2S)-2-hydroxy-4-(2-{[cis-3-(trifluoromethoxy)cyclobutyl]oxy}acetamido)bicyclo[2.2.2]octan-1-yl]-4-oxo-3,4-dihydro-2H-1-benzopyran-2-carboxamide]
The EC50 of the first is lower: less than 10 nM for the first, 10 to 50 nM for the second.

Compared with `O=C1C[C@H](C(=O)NC23CCC(C(=O)N[C@H]4C[C@@H](OC(F)(F)F)C4)(CC2)CC3)Oc2ccc(Cl)cc21` [Compound 221, (2R)-6-chloro-4-oxo-N-(4-{[cis-3-(trifluoromethoxy)cyclobutyl]carbamoyl}bicyclo[2.2.2]octan-1-yl)-3,4-dihydro-2H-1-benzopyran-2-carboxamide], `O=C(NC12CCC(C(=O)N[C@H]3C[C@@H](OC(F)(F)F)C3)(CC1)CC2)[C@H]1C[C@@H](O)c2cc(Cl)ccc2O1` [Compound 222, (2R,4R)-6-chloro-4-hydroxy-N-(4-{[cis-3-(trifluoromethoxy)cyclobutyl]carbamoyl}bicyclo[2.2.2]octan-1-yl)-3,4-dihydro-2H-1-benzopyran-2-carboxamide] is lower in EC50: 50 to 250 nM for the first, 10 to 50 nM for the second. The second is the more potent here.

Compared with `O=C1C[C@H](C(=O)NC23CC(N4CCC(c5ccc(Cl)cc5)C4=O)(C2)C3)Oc2ccc(Cl)cc21` (stereo partly drawn) [Compound 224, (2R)-6-chloro-N-{3-[3-(4-chlorophenyl)-2-oxopyrrolidin-1-yl]bicyclo[1.1.1]pentan-1-yl}-4-oxo-3,4-dihydro-2H-1-benzopyran-2-carboxamide], `O=C(NC12CC(n3cc(-c4ccc(Cl)cc4)cn3)(C1)C2)[C@@H]1C[C@@H](O)c2cc(Cl)ccc2O1` [Compound 236, (2S,4R)-6-chloro-N-{3-[4-(4-chlorophenyl)-1H-pyrazol-1-yl]bicyclo[1.1.1]pentan-1-yl}-4-hydroxy-3,4-dihydro-2H-1-benzopyran-2-carboxamide] is lower in EC50: greater than 2000 nM for the first, less than 10 nM for the second.

`O=C(NC12CC(C3=NOC([C@H]4C[C@@H](O)C4)C3)(C1)C2)[C@H]1C[C@@H](O)c2cc(Cl)ccc2O1` (stereo partly drawn) [Compound 227, (2R,4R)-6-chloro-4-hydroxy-N-(3-{5-[cis-3-hydroxycyclobutyl]-4,5-dihydro-1,2-oxazol-3-yl}bicyclo[1.1.1]pentan-1-yl)-3,4-dihydro-2H-1-benzopyran-2-carboxamide] and `O=C(NC12CC(C3=NOC([C@H]4C[C@@H](O)C4)C3)(C1)C2)[C@@H]1C[C@@H](O)c2cc(Cl)ccc2O1` (stereo partly drawn) [Compound 228, (2S,4R)-6-chloro-4-hydroxy-N-(3-{5-[cis-3-hydroxycyclobutyl]-4,5-dihydro-1,2-oxazol-3-yl}bicyclo[1.1.1]pentan-1-yl)-3,4-dihydro-2H-1-benzopyran-2-carboxamide] cannot be ordered by EC50: greater than 2000 nM for the first, greater than 2000 nM for the second.

`O=C(NC12CC(c3nc([C@H]4C[C@@H](OC(F)(F)F)C4)no3)(C1)C2)[C@H]1C[C@@H](O)c2cc(Cl)ccc2O1` [Compound 229, (2R,4R)-6-chloro-4-hydroxy-N-(3-{3-[cis-3-(trifluoromethoxy)cyclobutyl]-1,2,4-oxadiazol-5-yl}bicyclo[1.1.1]pentan-1-yl)-3,4-dihydro-2H-1-benzopyran-2-carboxamide] and `O=C(NC12CC(c3cc([C@H]4C[C@@H](OC(F)(F)F)C4)on3)(C1)C2)[C@H]1C[C@@H](O)c2cc(Cl)ccc2O1` [Compound 234, (2R,4R)-6-chloro-4-hydroxy-N-{3-(5-[cis-3-(trifluoromethoxy)cyclobutyl]-1,2-oxazol-3-yl}bicyclo[1.1.1]pentan-1-yl)-3,4-dihydro-2H-1-benzopyran-2-carboxamide] fall in the same range of EC50: 10 to 50 nM for the first, 10 to 50 nM for the second.

First: O=C(NC12CC(c3nc(-c4ccc(Cl)c(F)c4)no3)(C1)C2)[C@@H]1C[C@@H](O)c2cc(Cl)ccc2O1 [Compound 230, (2S,4R)-6-chloro-N-{3-[3-(4-chloro-3-fluorophenyl)-1,2,4-oxadiazol-5-yl]bicyclo[1.1.1]pentan-1-yl}-4-hydroxy-3,4-dihydro-2H-1-benzopyran-2-carboxamide]
Second: O=C(NC12CC(c3cnn(-c4ccc(Cl)c(F)c4)c3)(C1)C2)[C@H]1C[C@@H](O)c2cc(Cl)ccc2O1 [Compound 237, (2R,4R)-6-chloro-N-{3-[1-(4-chloro-3-fluorophenyl)-1H-pyrazol-4-yl]bicyclo[1.1.1]pentan-1-yl}-4-hydroxy-3,4-dihydro-2H-1-benzopyran-2-carboxamide]
The EC50 of the first is higher: 50 to 250 nM for the first, less than 10 nM for the second.

First: O=C(NC12CC(n3cnc(-c4ccc(C(F)(F)F)nc4)c3)(C1)C2)[C@@H]1C[C@@H](O)c2cc(Cl)ccc2O1 [Compound 231, (2S,4R)-6-chloro-4-hydroxy-N-(3-{4-[6-(trifluoromethyl)pyridin-3-yl]-1H-imidazol-1-yl}bicyclo[1.1.1]pentan-1-yl)-3,4-dihydro-2H-1-benzopyran-2-carboxamide]
Second: O=C(NC12CC(n3ccc(-c4ccc(C(F)(F)F)nc4)c3)(C1)C2)[C@H]1C[C@@H](O)c2cc(Cl)ccc2O1 [Compound 244, (2R,4R)-6-chloro-4-hydroxy-N-(3-{3-[6-(trifluoromethyl)pyridin-3-yl]-1H-pyrrol-1-yl}bicyclo[1.1.1]pentan-1-yl)-3,4-dihydro-2H-1-benzopyran-2-carboxamide]
The EC50 of the first is higher: 10 to 50 nM for the first, less than 10 nM for the second.

First: O=C(NC12CC(C3=NOC([C@H]4C[C@@H](OC(F)(F)F)C4)C3)(C1)C2)[C@H]1C[C@@H](O)c2cc(Cl)ccc2O1 (stereo partly drawn) [Compound 232, (2R,4R)-6-chloro-4-hydroxy-N-{3-(5-[cis-3-(trifluoromethoxy)cyclobutyl]-4,5-dihydro-1,2-oxazol-3-yl}bicyclo[1.1.1]pentan-1-yl)-3,4-dihydro-2H-1-benzopyran-2-carboxamide]
Second: O=C(NC12CC(C3=NOC([C@H]4C[C@@H](OC(F)(F)F)C4)C3)(C1)C2)[C@@H]1C[C@@H](O)c2cc(Cl)ccc2O1 (stereo partly drawn) [Compound 233, (2S,4R)-6-chloro-4-hydroxy-N-(3-{5-[cis-3-(trifluoromethoxy)cyclobutyl]-4,5-dihydro-1,2-oxazol-3-yl}bicyclo[1.1.1]pentan-1-yl)-3,4-dihydro-2H-1-benzopyran-2-carboxamide]
The EC50 of the first is lower: 50 to 250 nM for the first, 500 to 2000 nM for the second.

Compared with `O=C(NC12CC(n3ncc4cc(Cl)ccc43)(C1)C2)[C@H]1C[C@@H](O)c2cc(Cl)ccc2O1` [Compound 235, (2R,4R)-6-chloro-N-[3-(5-chloro-1H-indazol-1-yl)bicyclo[1.1.1]pentan-1-yl]-4-hydroxy-3,4-dihydro-2H-1-benzopyran-2-carboxamide], `O=C(NC12CC(c3cnn(-c4ccc(Cl)c(F)c4)c3)(C1)C2)[C@@H]1C[C@@H](O)c2cc(Cl)ccc2O1` [Compound 238, (2S,4R)-6-chloro-N-{3-[1-(4-chloro-3-fluorophenyl)-1H-pyrazol-4-yl]bicyclo[1.1.1]pentan-1-yl}-4-hydroxy-3,4-dihydro-2H-1-benzopyran-2-carboxamide] is lower in EC50: 50 to 250 nM for the first, 10 to 50 nM for the second.

First: O=C(CO[C@H]1C[C@@H](OC(F)(F)F)C1)NC12CCC(NC(=O)[C@@H]3C[C@@H](O)c4cc(Cl)ccc4O3)(CC1)CC2 [Compound 239, (2S,4R)-6-chloro-4-hydroxy-N-[4-(2-{[cis-3-(trifluoromethoxy)cyclobutyl]oxy}acetamido)bicyclo[2.2.2]octan-1-yl]-3,4-dihydro-2H-1-benzopyran-2-carboxamide]
Second: O=C(NC12CC(n3ccc(-c4ccc(C(F)(F)F)nc4)c3)(C1)C2)[C@@H]1C[C@@H](O)c2cc(Cl)ccc2O1 [Compound 245, (2S,4R)-6-chloro-4-hydroxy-N-(3-{3-[6-(trifluoromethyl)pyridin-3-yl]-1H-pyrrol-1-yl}bicyclo[1.1.1]pentan-1-yl)-3,4-dihydro-2H-1-benzopyran-2-carboxamide]
The EC50 of the first is lower: 10 to 50 nM for the first, 50 to 250 nM for the second. The first is the more potent here.

First: O=C(NC12CC(n3ccc(-c4ccc(Cl)cc4)c3)(C1)C2)[C@H]1C[C@@H](O)c2cc(Cl)ccc2O1 [Compound 240, (2R,4R)-6-chloro-N-{3-[3-(4-chlorophenyl)-1H-pyrrol-1-yl]bicyclo[1.1.1]pentan-1-yl}-4-hydroxy-3,4-dihydro-2H-1-benzopyran-2-carboxamide]
Second: O=C(NC12CC(n3ccc(-c4ccc(Cl)cc4)c3)(C1)C2)[C@@H]1C[C@@H](O)c2cc(Cl)ccc2O1 [Compound 241, (2S,4R)-6-chloro-N-{3-[3-(4-chlorophenyl)-1H-pyrrol-1-yl]bicyclo[1.1.1]pentan-1-yl}-4-hydroxy-3,4-dihydro-2H-1-benzopyran-2-carboxamide]
The EC50 of the first is lower: less than 10 nM for the first, 50 to 250 nM for the second. The first is the more potent here.

First: O=C(NC12CC(n3ccc(-c4ccc(Cl)c(F)c4)c3)(C1)C2)[C@H]1C[C@@H](O)c2cc(Cl)ccc2O1 [Compound 242, (2R,4R)-6-chloro-N-{3-[3-(4-chloro-3-fluorophenyl)-1H-pyrrol-1-yl]bicyclo[1.1.1]pentan-1-yl}-4-hydroxy-3,4-dihydro-2H-1-benzopyran-2-carboxamide]
Second: O=C(NC12CC(n3ccc(-c4ccc(Cl)c(F)c4)c3)(C1)C2)[C@@H]1C[C@@H](O)c2cc(Cl)ccc2O1 [Compound 243, (2S,4R)-6-chloro-N-{3-[3-(4-chloro-3-fluorophenyl)-1H-pyrrol-1-yl]bicyclo[1.1.1]pentan-1-yl}-4-hydroxy-3,4-dihydro-2H-1-benzopyran-2-carboxamide]
The EC50 of the first is lower: less than 10 nM for the first, 50 to 250 nM for the second.

In the case of `O=C(NC12CC(c3cc(-c4ccc(Cl)cc4)no3)(C1)C2)[C@H]1C[C@@H](O)c2cc(Cl)ccc2O1` [Compound 246, (2R,4R)-6-chloro-N-{3-[3-(4-chlorophenyl)-1,2-oxazol-5-yl]bicyclo[11.11]pentan-1-yl}-4-hydroxy-3,4-dihydro-2H-1-benzopyran-2-carboxamide], the EC50 is reported as 10 to 50 nM.

Source: patent publication US20200347043A1, “MODULATORS OF THE INTEGRATED STRESS PATHWAY” (Calico Life Sciences LLC, priority 2019, published 2020)
